From US7375083B2, “Pharmaceutical compositions for prevention of overdose or abuse” (Shire LLC, priority 2003, dated 2008)
Where “and” joins values, the source holds several entries; their conditions need not be identical. Equal entries are not always repeated. Where two headings read alike, the source gives them in different places. Where a SMILES comes first, the peptide text is derived from it. The star is where a group is joined. X1 = COc1ccc2c3c1O[C@H]1C(O*)=CC[C@H]4[C@@H](C2)N(C)CC[C@]314

Legend:
[1] = Crossover pharmacokinetics in dogs, oral vs 30-min intravenous infusion, LC-MS/MS; assay type: in vivo, male beagle dogs; conditions: for AUC(0-inf): read-out: AUC(inf) of L-lysine-d-amphetamine; for Cmax: read-out: Cmax of L-lysine-d-amphetamine; for MRT: read-out: MRT of L-lysine-d-amphetamine; for Vd: read-out: Vss of L-lysine-d-amphetamine; for half-life: read-out: t1/2 of L-lysine-d-amphetamine (converted)
Source text: This was a non-randomized, two-treatment crossover study. All animals were maintained on their normal diet and were fasted overnight prior to each dose administration. L-lysine-d-amphetamine dose was based on the body weight measured on the morning of each dosing day. The actual dose delivered was based on syringe weight before and after dosing. Serial blood samples were obtained from each animal by direct venipuncture of a jugular vein using vacutainer tubes containing sodium heparin as the anticoagulant. Derived plasma samples were stored frozen until shipment to the Quest Pharmaceutical Services, Inc. (Newark, Del.). Pharmacokinetic analysis of the plasma assay results was conducted by Calvert. Animals were treated as follows:
Oral: The test article was administered to each animal via a single oral gavage. On Day 1, animals received the oral dose by gavage using an esophageal tube attached to a syringe. Dosing tubes were flushed with approximately 20 mL tap water to ensure the required dosing solution was delivered.
Intravenous: On Day 8, animals received L-lysine-d-amphetamine as a single 30-minute intravenous infusion into a cephalic vein.
Blood: Serial blood samples (2 mL) were collected using venipuncture tubes containing sodium heparin. Blood samples were taken at 0, 0.25, 0.5, 1, 2, 4, 8, 12, 24, 48, and 72 hours post-oral dosing. […] Collected blood samples were chilled immediately.
Plasma: Plasma samples were obtained by centrifugation of blood samples. Duplicate plasma samples (about 0.2 mL each) were transferred into prelabeled plastic vials and stored frozen at approximately −70° C.
Microsoft Excel (Version 6, Microsoft Corp., Redmond, Wash.) was used for calculation of mean plasma concentration and graphing of the plasma concentration-time data. Pharmacokinetic analysis (non-compartmental) was performed using the WinNonlin® software program (Version 4.1, Pharsight, Inc. Mountain View, Calif.). The maximum concentration, Cmax, and the time to Cmax, Tmax, were observed values. The area under the plasma concentration-time curve (AUC) was determined using linear-log trapezoidal rules. The apparent terminal rate constant (λz) was derived using linear least-squares regression with visual inspection of the data to determine the appropriate number of points (minimum of 3 data points) for calculating λz. The AUC(0-inf) was calculated as the sum of AUC(0-t) and Cpred/λz, where Cpred was the predicted concentration at the time of the last quantifiable concentration. The plasma clearance (CL/F) was determined as the ratio of Dose/AUC (0-inf). The mean residence time (MRT) was calculated as the ratio of AUMC(0-inf)/AUC (0-inf), where AUMC(0-inf) was the area under the first moment curve from the time zero to infinity. The volume of distribution at steady state (Vss) was estimated as CL*MRT. Half-life was calculated as In2/λz. The oral bioavailability (F) was calculated as the ratio of AUC(0-inf) following oral dosing to AUC(0-inf) following intravenous dosing. Descriptive statistics (mean and standard deviation) of the pharmacokinetic parameters were calculated using Microsoft Excel.
Blood samples were collected up to 24 and 72 hour after the intravenous and oral does, respectively. Plasma samples were analyzed using a LC-MS/MS assay which provided an LLOQ of 1 ng/mL for both analytes.

[2] = Bolus intravenous bioavailability in rats, LC/MS/MS; conditions: rat
[3] = Intranasal bioavailability in rats, LC/MS/MS; conditions: male, Sprague-Dawley, rat, plasma, inhaled or intranasal, 3 mg/kg
[4] = Oral bioavailability in rats at escalating doses, LC/MS/MS; conditions: rat
[5] = Intravenous bioavailability of hydrocodone conjugates in rats, LC/MS/MS; conditions: intravenous
[6] = male beagle dogs 1-3 and Mean, 30-min iv infusion, 2 mg/kg/h (free form), 2 mg/kg
[7] = male beagle dogs 1-3 and Mean, oral, 2 mg/kg (free form), 2 mg/kg
[8] = male, beagle, dog, plasma, iv, 1 mg/kg, male beagle dog, IV, 1 mg/kg d-amphetamine base, mean
[9] = male, beagle, dog, plasma, iv, 2 mg/kg, male beagle dogs 1-3 and Mean, 30-min iv infusion, 2 mg/kg/h (free form)
[10] = male, beagle, dog, plasma, po, 1 mg/kg, male beagle dog, oral, 1 mg/kg d-amphetamine base, mean
[11] = male, Sprague-Dawley, in vivo, po, 3 mg/kg
[12] = male, Sprague-Dawley, in vivo, po, 6 mg/kg
[13] = male, Sprague-Dawley, in vivo, po, 12 mg/kg
[14] = male, Sprague-Dawley, in vivo, po, 60 mg/kg
[15] = 1 mg/kg dose, hydrocodone plus hydromorphone
[16] = 1 mg/kg dose, relative to hydrocodone bitartrate
[17] = 1 mg/kg hydrocodone base content
[18] = 1 mg/kg hydrocodone base content, 0 h
[19] = 1 mg/kg hydrocodone base content, 0.1 h
[20] = 1 mg/kg hydrocodone base content, 0.5 h
[21] = 1 mg/kg hydrocodone base content, 1.0 h
[22] = 1 mg/kg hydrocodone base content, 2.0 h
[23] = 1 mg/kg hydrocodone base content, 4.0 h

SMILES: CC(Cc1ccccc1)NC(=O)C(N)CCCCN [L-lysine-d-amphetamine, 2,6-diaminohexanoic acid-(1-methyl-2-phenylethyl)-amide]
- Tmax ([1]; dog, plasma, male beagle dogs 1-3 and median, 30-min iv infusion, 2 mg/kg/h (free form), read-out: Tmax of L-lysine-d-amphetamine): 29.4 min
- Tmax ([1]; dog, plasma, male beagle dogs 1-3 and median, oral, 2 mg/kg (free form), read-out: Tmax of L-lysine-d-amphetamine): 30 min
- AUC(0-t) of L-lysine-d-amphetamine [1, 6]: 898.2 ng·h/mL
- AUC(inf) of L-lysine-d-amphetamine [1, 6]: 900.2 ng·h/mL and 1076.1 ng·h/mL
- CL of L-lysine-d-amphetamine [1, 6]: 37.03 mL/min/kg and 30.98 mL/min/kg
- Cmax of L-lysine-d-amphetamine [1, 6]: 1470.3 ng/mL
- MRT of L-lysine-d-amphetamine [1, 6]: 21.6 min and 19.2 min
- Vss of L-lysine-d-amphetamine [1, 6]: 0.8074 L/kg
- t1/2 of L-lysine-d-amphetamine [1, 6]: 43.2 min
- AUC(0-t) of L-lysine-d-amphetamine [1, 7]: 318.0 ng·h/mL
- AUC(inf) of L-lysine-d-amphetamine [1, 7]: 312.0 ng·h/mL and 277.1 ng·h/mL
- CL/F of L-lysine-d-amphetamine [1, 7]: 106.8 mL/min/kg and 120.3 mL/min/kg
- F of L-lysine-d-amphetamine [1, 7]: 34.3% and 34.0% and 30.8%
- MRT of L-lysine-d-amphetamine [1, 7]: 40.8 min
- t1/2 of L-lysine-d-amphetamine [1, 7]: 27 min and 14.4 min
- AUC(0-inf) [1, 8]: 964 ng·h/mL
- Cmax [1, 8]: 1650 ng/mL
- MRT [1, 8]: 19.8 min
- Vd [1, 8]: 0.689 L/kg
- half-life [1, 8]: 52.8 min
- Tmax ([1]; male, beagle, dog, plasma, iv, 1 mg/kg, read-out: Tmax of L-lysine-d-amphetamine (median)): 29.4 min
- AUC(0-t) ([1]; male, beagle, dog, plasma, iv, 2 mg/kg, male beagle dogs 1-3 and Mean, 30-min iv infusion, 2 mg/kg/h (free form), read-out: AUC(0-t) of L-lysine-d-amphetamine): 914 ng·h/mL
- AUC(0-inf) [1, 9]: 917 ng·h/mL
- clearance ([1]; male, beagle, dog, plasma, iv, 2 mg/kg, male beagle dogs 1-3 and Mean, 30-min iv infusion, 2 mg/kg/h (free form), read-out: CL of L-lysine-d-amphetamine (converted)): 36.4 mL/min/kg
- Cmax [1, 9]: 1650 ng/mL
- MRT [1, 9]: 18 min
- Vd [1, 9]: 0.656 L/kg
- half-life [1, 9]: 63 min
- AUC(0-inf) [1, 10]: 319 ng·h/mL
- CL/F ([1]; male, beagle, dog, plasma, po, 1 mg/kg, male beagle dog, oral, 1 mg/kg d-amphetamine base, mean, read-out: CL/F of L-lysine-d-amphetamine (converted)): 106 mL/min/kg
- Cmax [1, 10]: 328 ng/mL
- MRT [1, 10]: 48.6 min
- half-life [1, 10]: 23.4 min
- bioavailability ([1]; male, beagle, dog, plasma, po, 1 mg/kg, read-out: F (absolute oral bioavailability) of L-lysine-d-amphetamine): 33%
- Tmax ([1]; male, beagle, dog, plasma, po, 1 mg/kg, read-out: Tmax of L-lysine-d-amphetamine (median)): 30 min
- Tmax ([2]; male, Sprague-Dawley, plasma, iv, […]): 4.98 min
- Cmax of d-amphetamine relative to d-amphetamine ([2]; bolus intravenous): about one-fourth
- AUC(0-inf) [3]: 9140 ng·h/mL
- AUC(0-t) [3]: 2580 ng·h/mL
- Cmax [3]: 3350 ng/mL
- Tmax [3]: 15 min
- Tmax ([4]; male, Sprague-Dawley, in vivo, po): 15 to 180 min
- AUC(0-t) [4, 11]: 330 ng·h/mL
- Cmax [4, 11]: 135 ng/mL
- Tmax [4, 11]: 90 min
- AUC(0-t) [4, 12]: 1160 ng·h/mL
- Cmax [4, 12]: 677 ng/mL
- Tmax [4, 12]: 15 min
- AUC(0-inf) [4, 13]: 4510 ng·h/mL
- AUC(0-t) [4, 13]: 4240 ng·h/mL
- Cmax [4, 13]: 856 ng/mL
- Tmax [4, 13]: 60 min
- AUC(0-t) [4, 14]: 8230 ng·h/mL
- Cmax [4, 14]: 1870 ng/mL
- Tmax [4, 14]: 180 min
- Tmax ([4]; male, Sprague-Dawley, in vivo, po, […]): 15 min
- Cmax of d-amphetamine compared to d-amphetamine sulfate ([4]; oral, 1.5 to 6 mg/kg): reduced by approximately half

SMILES: CC[C@H](C)[C@H](NC(=O)[C@H](Cc1ccccc1)NC(=O)[C@H](Cc1ccccc1)NC(=O)[C@H](Cc1ccc(O)cc1)NC(=O)[C@@H](N)Cc1ccc(O)cc1)C(=O)OC1=CC[C@H]2[C@H]3Cc4ccc(OC)c5c4[C@@]2(CCN3C)[C@H]1O5 [YYFFI[SEQ ID NO: 8]-HC, Tyr-Tyr-Phe-Phe-Ile[SEQ ID NO: 8]-(6-O)-Hydrocodone] (H-YYFFI-X1)
- hydrocodone plus hydromorphone concentration ([5]; 1 mg/kg dose, 5 Minutes): 171 ng/mL
- hydrocodone plus hydromorphone concentration ([5]; 1 mg/kg dose, 15 Minutes): 28 ng/mL
- hydrocodone plus hydromorphone concentration ([5]; 1 mg/kg dose, 30 Minutes): 22 ng/mL
- hydrocodone plus hydromorphone concentration ([5]; 1 mg/kg dose, 60 Minutes): 18 ng/mL
- AUC (ng/ml h) 0-1 h [5, 15]: 40 ng·h/mL
- Cmax [5, 15]: 171 ng/mL
- Percent HC (AUC) [5, 16]: 29%
- Percent HC (Cmax) [5, 16]: 72%
- HC (hydrocodone) AUC, Percent relative to hydrocodone bitartrate [5, 17]: 19%
- HC (hydrocodone) Cmax [5, 17]: 8.7 ng/mL
- HC (hydrocodone) Cmax, Percent relative to hydrocodone bitartrate [5, 17]: 20.2%
- HC + HM AUC, Percent relative to hydrocodone bitartrate [5, 17]: 36%
- HC + HM Cmax [5, 17]: 22.6 ng/mL
- HC + HM Cmax, Percent relative to hydrocodone bitartrate [5, 17]: 10.8%
- HM (hydromorphone) AUC, Percent relative to hydrocodone bitartrate [5, 17]: 33%
- HM (hydromorphone) Cmax [5, 17]: 31.3 ng/mL
- HM (hydromorphone) Cmax, Percent relative to hydrocodone bitartrate [5, 17]: 12.4%
- Mean HC (hydrocodone) concentration [5, 18]: 0 ng/mL
- Mean HC + HM concentration [5, 18]: 0 ng/mL
- Mean HM (hydromorphone) concentration [5, 18]: 0 ng/mL
- Mean HC (hydrocodone) concentration [5, 19]: 8.75 ng/mL
- Mean HC + HM concentration [5, 19]: 22.6 ng/mL
- Mean HM (hydromorphone) concentration [5, 19]: 31.3 ng/mL
- Mean HC (hydrocodone) concentration [5, 20]: 1.44 ng/mL
- Mean HC + HM concentration [5, 20]: 13.5 ng/mL
- Mean HM (hydromorphone) concentration [5, 20]: 14.9 ng/mL
- Mean HC (hydrocodone) concentration [5, 21]: 0.92 ng/mL
- Mean HC + HM concentration [5, 21]: 13.0 ng/mL
- Mean HM (hydromorphone) concentration [5, 21]: 13.9 ng/mL
- Mean HC (hydrocodone) concentration [5, 22]: 0.41 ng/mL
- Mean HC + HM concentration [5, 22]: 13.1 ng/mL
- Mean HM (hydromorphone) concentration [5, 22]: 13.5 ng/mL
- Mean HC (hydrocodone) concentration [5, 23]: 0.33 ng/mL
- Mean HC + HM concentration [5, 23]: 8.5 ng/mL
- Mean HM (hydromorphone) concentration [5, 23]: 8.8 ng/mL
